Reference: ChEMBL document CHEMBL5241102, “Drugs for the treatment of glaucoma: Targets, structure-activity relationships and clinical research” (Eur J Med Chem, 2021)
“And” between values parts separate entries of the source, which are not always exact repeats. Equal values may be shown once.

Assays:
[1] = Induction of disruption of actin stress fibers in PTM cells by actin stress fiber assay; format: functional, cell-based, Sus scrofa; settings: ptm cell
Mus musculus = organism: Mus musculus; assay: Antiglaucoma activity in mouse eye assessed as increase in lymphatic drainage relative to control; format: functional
[2] = biological target: Prostaglandin F2-alpha receptor (Homo sapiens, UniProt P43088); assay: Agonist activity at FP receptor (unknown origin)
Prostaglandin F2-alpha receptor, sequence (P43088 whole entry): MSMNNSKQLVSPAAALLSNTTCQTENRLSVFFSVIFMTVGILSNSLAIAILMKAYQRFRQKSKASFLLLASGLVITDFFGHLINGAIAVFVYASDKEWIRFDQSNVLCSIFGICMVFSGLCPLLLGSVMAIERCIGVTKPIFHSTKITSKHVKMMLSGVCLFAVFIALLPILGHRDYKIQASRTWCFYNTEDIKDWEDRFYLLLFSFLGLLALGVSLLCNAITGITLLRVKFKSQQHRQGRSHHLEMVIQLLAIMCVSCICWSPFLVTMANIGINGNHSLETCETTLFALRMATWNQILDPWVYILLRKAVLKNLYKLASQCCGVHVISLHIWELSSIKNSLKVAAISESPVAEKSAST

[3] = biological target: T1, Prostaglandin E2 receptor EP3 subtype (Homo sapiens, UniProt P43115); assay: Agonist activity at EP3 (unknown origin)
T1 sequence (P43115 whole entry): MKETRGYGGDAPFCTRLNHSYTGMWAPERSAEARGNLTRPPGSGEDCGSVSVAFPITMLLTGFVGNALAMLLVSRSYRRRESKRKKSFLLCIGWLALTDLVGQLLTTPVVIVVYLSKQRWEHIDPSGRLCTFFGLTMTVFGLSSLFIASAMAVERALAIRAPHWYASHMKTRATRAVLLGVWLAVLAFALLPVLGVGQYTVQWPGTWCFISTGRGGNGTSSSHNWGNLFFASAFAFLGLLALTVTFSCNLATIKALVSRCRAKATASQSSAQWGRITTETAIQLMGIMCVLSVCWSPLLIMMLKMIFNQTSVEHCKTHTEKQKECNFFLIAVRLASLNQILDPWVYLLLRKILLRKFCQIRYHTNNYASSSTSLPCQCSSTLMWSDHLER

[4] = Induction of disruption of actin stress fibers in human TM1 cells by actin stress fiber assay; format: functional, cell-based
[5] = Half life in rabbit; format: ADME, Oryctolagus cuniculus; settings: in vivo
Autotaxin = Autotaxin (Homo sapiens, UniProt Q13822); assay: Inhibition of ATX (unknown origin)
Rhesus monkey = assay: Antiglaucoma activity in ocular […] monkey assessed as reduction in intraocular pressure; format: functional, organism-based; settings: Macaca mulatta
[6] = biological target: Prostaglandin E2 receptor EP2 subtype (Homo sapiens, UniProt P43116); assay: Binding affinity to EP2 (unknown origin) assessed as inhibition constant
Prostaglandin E2 receptor EP2 subtype, sequence (P43116 whole entry): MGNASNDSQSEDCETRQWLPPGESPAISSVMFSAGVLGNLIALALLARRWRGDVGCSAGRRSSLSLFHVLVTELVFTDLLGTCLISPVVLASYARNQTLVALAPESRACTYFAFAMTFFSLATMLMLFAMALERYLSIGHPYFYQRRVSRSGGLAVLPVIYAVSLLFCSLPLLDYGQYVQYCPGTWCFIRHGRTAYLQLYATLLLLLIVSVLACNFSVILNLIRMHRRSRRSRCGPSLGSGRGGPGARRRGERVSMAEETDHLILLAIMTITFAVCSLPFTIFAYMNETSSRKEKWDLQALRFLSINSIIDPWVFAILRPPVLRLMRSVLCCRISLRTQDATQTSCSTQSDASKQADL

[7] = Half life in human; format: ADME

In the case of `NC[C@@H](C(=O)Nc1ccc2cnccc2c1)c1ccc(CO)cc1`, the IC50 [1] is reported as 22 nM and 3 nM.

`CC(C)OC(=O)CCC/C=C\C[C@@H]1[C@@H](CC[C@@H](O)CCc2ccccc2)[C@H](O)C[C@@H]1O` [LATANOPROST] showed an Activity (Mus musculus) of 400%.

Compound `O=C(O)CCC[C@H]1CC[C@@H]2[C@@H](/C=C/[C@@H](O)COc3cc(F)ccc3F)[C@H](O)C[C@@H]2OC1` [ONO-AG-367] has an EC50 [2] of 22.3 nM and an EC50 [3] of 28.6 nM.

Work on `Cc1ccc(C(=O)OCc2ccc([C@@H](CN)C(=O)Nc3ccc4cnccc4c3)cc2)c(C)c1` yielded an IC50 [1] of 79 nM and an IC50 [4] of 16 nM.

Work on `O=C(CCC/C=C\C[C@@H]1[C@@H](CC[C@@H](O)CCc2ccccc2)[C@H](O)C[C@@H]1O)OCCCCO[N+](=O)[O-]` [LATANOPROSTENE BUNOD] yielded a half-life [5] of 108 min.

With `CCCCCn1c(N2CCC[C@H](C(=O)O)C2)cc(=O)n2cc(-c3ccc(Cl)cc3)nc12` the IC50 (Autotaxin) was 110 nM.

`CC(C)OC(=O)CCC[C@H]1CC[C@@H]2[C@@H](/C=C/[C@@H](O)COc3cc(F)ccc3F)[C@H](O)C[C@@H]2OC1` [SEPETAPROST] gave an EC50 [2] of 3030 nM and an EC50 [3] of 10 nM.

`O=C(O)CNc1cccc(CN(Cc2ccc(-n3cccn3)cc2)S(=O)(=O)c2cccnc2)n1` [OMIDENEPAG] gave an EC50 (Rhesus monkey) of 8.3 nM, a Ki [6] of 3.6 nM and a half-life [7] of 30 min.
